Source: PMC9303235 (2022)

Columns and labels:
[1] = test system: QD2-l (DNA, G4) GGTTGGCGCGAAGCATTCGCGGGTTGG; experiment: NMR titration (imino protons, ROESY exchange); conditions: K+ (10 mM potassium phosphate), pH 7.0, 20 °C, 0.5 mM DNA, slow exchange, intercalation at junction
[2] = test system: QD3-sbl (DNA, G4) TTAGGTGGGTAGGGTGGGCTAGTCATTTTGACTAGG; experiment: ITC; conditions: 120 mM K+; 20 mM potassium phosphate, 100 mM KCl, pH 7.0, 5% DMSO, 40 °C; high-affinity site, two-site fit
[3] = test system: QD3-sbl (DNA, G4) TTAGGTGGGTAGGGTGGGCTAGTCATTTTGACTAGG; experiment: NMR solution structure; conditions: K+ (10 mM potassium phosphate); pH 7.0, 30 °C; about 2% DMSO-d6; intercalation at quadruplex-duplex junction

binding [1] | Ka [2] | binding [3] | SMILES
yes | (1.1±0.3) ⋅ 10^7 M^-1 | yes | CN(C)CCCNc1c2ccccc2nc2c1[nH]c1ccccc12
– | (3.3±0.7) ⋅ 10^6 M^-1 | – | C[n+]1c2ccccc2cc2[nH]c3ccccc3c21
